Experimental data from patent US20160122342A1, “ENHANCER OF ZESTE HOMOLOG 2 INHIBITORS” (GLAXOSMITHKLINE INTELLECTUAL PROPERTY (NO.2) LIMITED, priority 2013, published 2016).
Counter-ions that a name gives are not always drawn.

Target: T1, EZH2 within the PRC2 complex (Homo sapiens, UniProt Q15910)
T1 construct: FLAG; made in house; host or cells: Sf9 cells
Test: Assay Protocol 2: EZH2 methyltransferase scintillation proximity assay, biotinylated histone H3 peptide substrate
Type: biochemical
Conditions: SPA, 3H-SAM, biotinylated unmethylated histone H3K27 peptide substrate, 5-member PRC2 complex
Description: Compounds contained herein were evaluated for their ability to inhibit the methyltransferase activity of EZH2 within the PRC2 complex. […] The peptides were captured on streptavidin-coated SPA beads and the resulting signal was read on a ViewLux plate reader. • 4. Prepare 10 mM stock of compounds from solid in 100% DMSO. • 5. […] Dispense 10 nL of compound from the dilution plate into reaction plates (Corning, 384-well polystyrene NBS, Cat#3673). Prepare the following solutions: • 7. 1× Base Buffer, 50 mM Tris-HCl, pH 8, 2 mM MgCl2: Per 1 L of base buffer, combine 1 M Tris-HCl, pH 8 (50 mL), 1 M MgCl2 (2 mL), and distilled water (948 mL). • 8. 1× Assay Buffer: Per 10 mL of 1× Assay Buffer, combine 1× Base Buffer (9.96 mL), 1 M DTT (40 uL), and 10% Tween-20 (1 uL) to provide a final concentration of 50 mM Tris-HCl, pH 8, 2 mM MgCl2, 4 mM DTT, 0.001% Tween-20. • 9. 2× Enzyme Solution: […] SPA Bead Solution: Per 1 mL of SPA Bead Solution, combine Streptavidin coated SPA beads (PerkinElmer, Cat# RPNQ0261, 40 mg) and 1× Assay Buffer (1 mL) to provide a working concentration of 40 mg/mL. • 11. 2× Substrate Solution: Per 10 mL of 2× Substrate Solution, combine 40 mg/mL SPA Bead Solution (375 uL), 1 mM biotinylated histone H3K27 peptide (200 uL), 12.5 uM 3H-SAM (240 uL; 1 mCi/mL), 1 mM cold SAM (57 uL), and 1× Assay Buffer (9.13 mL) to provide a final concentration of 0.75 mg/mL SPA Bead Solution, 10 uM biotinylated histone H3K27 peptide, 0.15 uM 3H-SAM (˜12 uCi/mL 3H-SAM), and 2.85 uM cold SAM. • 12. 2.67× Quench Solution: Per 10 mL of 2.67× Quench Solution, combine 1× Assay Buffer (9.73 mL) and 10 mM cold SAM (267 uL) to provide a final concentration of 100 uM cold SAM. • 3. […] Dispense 5 uL/well of 1× Assay Buffer to column 18 (low control reactions). • 11. Dispense 5 uL/well of 2× Substrate Solution to columns 1-24 (note: substrate solution should be mixed to ensure homogeneous bead suspension before dispensing into matrix reservoir). • 12. Dispense 5 uL/well of 2× Enzyme Solution to columns 1-17, 19-24. • 13. Incubate the reaction for 60 min at room temperature. • 5. Dispense 6 uL/well of the 2.67× Quench Solution to columns 1-24. • 6. Seal assay plates and spin for ˜1 min at 500 rpm. • 7. Dark adapt plates in the ViewLux instrument for 15-60 min. • 2. Read the assay plates on the Viewlux Plate Reader utilizing the 613 nm emission filter or clear filter (300 s exposure). Reagent addition can be done manually or with automated liquid handler. Percent inhibition was calculated relative to the DMSO control for each compound concentration and the resulting values were fit using standard IC50 fitting parameters within the ABASE data fitting software package.

T1 sequence (Q15910 whole entry): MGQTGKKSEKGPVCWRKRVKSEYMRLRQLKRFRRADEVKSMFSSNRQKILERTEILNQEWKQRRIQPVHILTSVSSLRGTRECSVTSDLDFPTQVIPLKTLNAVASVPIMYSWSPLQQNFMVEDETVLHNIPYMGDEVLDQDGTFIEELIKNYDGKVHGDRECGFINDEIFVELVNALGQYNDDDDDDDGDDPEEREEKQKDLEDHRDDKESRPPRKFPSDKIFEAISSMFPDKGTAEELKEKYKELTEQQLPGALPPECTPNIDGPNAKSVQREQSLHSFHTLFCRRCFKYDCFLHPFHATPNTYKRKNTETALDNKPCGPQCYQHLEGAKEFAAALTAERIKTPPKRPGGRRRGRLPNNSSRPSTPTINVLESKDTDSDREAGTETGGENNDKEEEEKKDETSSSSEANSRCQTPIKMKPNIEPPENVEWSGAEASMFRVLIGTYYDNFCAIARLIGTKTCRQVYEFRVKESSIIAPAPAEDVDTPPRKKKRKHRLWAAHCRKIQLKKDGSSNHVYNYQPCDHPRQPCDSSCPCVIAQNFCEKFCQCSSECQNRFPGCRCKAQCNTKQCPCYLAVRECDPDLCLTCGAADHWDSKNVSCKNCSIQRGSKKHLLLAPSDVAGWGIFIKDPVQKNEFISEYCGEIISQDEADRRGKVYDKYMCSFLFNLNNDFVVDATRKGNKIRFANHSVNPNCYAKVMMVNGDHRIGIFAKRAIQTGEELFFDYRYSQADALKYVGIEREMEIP
T1 sequence (O75530 whole entry partner): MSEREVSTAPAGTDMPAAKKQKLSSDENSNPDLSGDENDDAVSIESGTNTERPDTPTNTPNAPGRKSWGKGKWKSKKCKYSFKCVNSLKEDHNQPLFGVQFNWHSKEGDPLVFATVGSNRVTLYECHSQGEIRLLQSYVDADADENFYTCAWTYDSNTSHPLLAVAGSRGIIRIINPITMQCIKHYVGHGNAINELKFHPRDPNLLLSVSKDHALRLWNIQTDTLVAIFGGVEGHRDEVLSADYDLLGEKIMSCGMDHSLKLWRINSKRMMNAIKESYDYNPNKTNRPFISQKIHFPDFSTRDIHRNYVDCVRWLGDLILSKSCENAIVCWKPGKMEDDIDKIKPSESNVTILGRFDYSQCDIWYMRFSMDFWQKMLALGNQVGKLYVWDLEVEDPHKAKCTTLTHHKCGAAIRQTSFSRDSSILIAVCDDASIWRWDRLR
T1 sequence (Q15022 whole entry partner): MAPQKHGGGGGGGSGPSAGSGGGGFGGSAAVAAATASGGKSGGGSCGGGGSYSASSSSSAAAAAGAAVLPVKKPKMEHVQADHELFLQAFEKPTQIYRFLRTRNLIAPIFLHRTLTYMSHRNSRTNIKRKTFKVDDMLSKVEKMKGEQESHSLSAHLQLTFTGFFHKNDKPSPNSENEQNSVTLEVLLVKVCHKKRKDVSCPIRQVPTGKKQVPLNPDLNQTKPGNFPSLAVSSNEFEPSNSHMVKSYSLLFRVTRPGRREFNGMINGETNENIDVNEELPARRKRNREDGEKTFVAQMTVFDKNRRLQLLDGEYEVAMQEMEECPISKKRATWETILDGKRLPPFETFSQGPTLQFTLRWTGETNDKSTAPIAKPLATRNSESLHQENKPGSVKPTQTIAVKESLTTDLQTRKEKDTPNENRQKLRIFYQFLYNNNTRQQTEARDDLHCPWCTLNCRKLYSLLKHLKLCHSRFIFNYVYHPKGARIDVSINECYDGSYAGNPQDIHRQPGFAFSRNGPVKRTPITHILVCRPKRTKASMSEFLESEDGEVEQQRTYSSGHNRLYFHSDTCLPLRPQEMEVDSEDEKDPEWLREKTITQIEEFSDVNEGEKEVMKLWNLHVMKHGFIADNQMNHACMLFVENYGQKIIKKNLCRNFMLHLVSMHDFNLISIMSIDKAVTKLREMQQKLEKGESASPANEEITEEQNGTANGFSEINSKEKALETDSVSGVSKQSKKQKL
T1 sequence (Q09028 whole entry partner): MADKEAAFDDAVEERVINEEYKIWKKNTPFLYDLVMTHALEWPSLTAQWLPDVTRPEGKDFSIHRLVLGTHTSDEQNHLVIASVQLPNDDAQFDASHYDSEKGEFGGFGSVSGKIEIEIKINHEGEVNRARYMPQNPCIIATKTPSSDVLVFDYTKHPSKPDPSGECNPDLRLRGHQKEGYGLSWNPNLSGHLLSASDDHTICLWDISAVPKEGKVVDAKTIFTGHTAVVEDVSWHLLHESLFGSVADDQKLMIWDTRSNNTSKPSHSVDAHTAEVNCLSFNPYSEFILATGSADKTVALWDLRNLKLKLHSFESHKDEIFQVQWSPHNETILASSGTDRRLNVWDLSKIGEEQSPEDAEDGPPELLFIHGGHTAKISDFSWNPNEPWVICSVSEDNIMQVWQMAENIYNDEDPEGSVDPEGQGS
T1 sequence (Q6ZN18 whole entry partner): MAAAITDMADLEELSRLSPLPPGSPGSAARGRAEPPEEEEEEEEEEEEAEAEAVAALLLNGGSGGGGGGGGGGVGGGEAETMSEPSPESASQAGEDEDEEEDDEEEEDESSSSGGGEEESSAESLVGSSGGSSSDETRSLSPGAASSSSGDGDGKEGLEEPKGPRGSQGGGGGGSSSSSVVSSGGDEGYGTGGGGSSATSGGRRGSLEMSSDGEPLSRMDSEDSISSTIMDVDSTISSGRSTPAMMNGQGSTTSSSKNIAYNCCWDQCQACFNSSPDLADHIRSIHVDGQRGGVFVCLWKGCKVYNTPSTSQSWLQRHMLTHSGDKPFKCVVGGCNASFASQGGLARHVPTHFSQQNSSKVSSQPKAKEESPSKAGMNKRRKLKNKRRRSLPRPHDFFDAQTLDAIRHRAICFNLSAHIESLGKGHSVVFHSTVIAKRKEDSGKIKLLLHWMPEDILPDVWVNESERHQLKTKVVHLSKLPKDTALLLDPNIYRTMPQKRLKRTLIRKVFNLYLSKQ

Row | SMILES | IC50 [nM]
1 | CCN(c1cccc2c1CCCCc1cc(C)[nH]c(=O)c1CNC2=O)[C@H]1CC[C@H](N(C)C)CC1 [Example 62, 9-((trans-4-(dimethylamino)cyclohexyl)(ethyl)amino)-3-methyl-5,6,7,8,14,15-hexahydro-1H-benzo[c]pyrido[4,3-i][1]azacycloundecine-1,13(2H)-dione] | 251
2 | CCN(c1cccc2c1C/C=C/CCc1cc(C)[nH]c(=O)c1CNC2=O)C1CCN(CC(F)(F)F)CC1 [Example 47, (E)-10-(ethyl(1-(2,2,2-trifluoroethyl)piperidin-4-yl)amino)-3-methyl-5,6,15,16-tetrahydrobenzo[c]pyrido[4,3-j][1]azacyclododecine-1,14(2H,9H)-dione] | 200
3 | CCN1CCC(N(CC)c2cccc3c2C/C=C/CCc2cc(C)[nH]c(=O)c2CNC3=O)CC1 [Example 44, (E)-10-(ethyl(1-ethylpiperidin-4-yl)amino)-3-methyl-5,6,15,16-tetrahydrobenzo[c]pyrido[4,3-j][1]azacyclododecine-1,14(2H,9H)-dione] | 79
4 | CCN(c1cccc2c1C/C=C/CCc1cc(C)[nH]c(=O)c1CNC2=O)C1CCC2(CC1)CN(C)C2 [Example 67, (E)-10-(ethyl(2-methyl-2-azaspiro[3.5]nonan-7-yl)amino)-3-methyl-5,6,15,16-tetrahydrobenzo[c]pyrido[4,3-j][1]azacyclododecine-1,14(2H,9H)-dione] | 100
5 | CCN(c1cccc2c1C/C=C/CCc1cc(C)[nH]c(=O)c1CNC2=O)[C@H]1CC[C@H](N(C)CC(F)F)CC1 [Example 57, (E)-10-((trans-4-((2,2-difluoroethyl)(methyl)amino)cyclohexyl)(ethyl)amino)-3-methyl-5,6,15,16-tetrahydrobenzo[c]pyrido[4,3-j][1]azacyclododecine-1,14(2H,9H)-dione] | 100
6 | CCN(c1cccc2c1C/C=C/CCc1cc(C)[nH]c(=O)c1CNC2=O)[C@H]1CC[C@@H](N(C)C)CC1 [Example 55, (E)-10-((cis-4-(dimethylamino)cyclohexyl)(ethyl)amino)-3-methyl-5,6,15,16-tetrahydrobenzo[c]pyrido[4,3-j][1]azacyclododecine-1,14(2H,9H)-dione] | 251
7 | CCN(c1cccc2c1C/C=C/CCc1cc(C)[nH]c(=O)c1CNC2=O)C1CCN(Cc2ccn(C)n2)CC1 [Example 45] | 50
8 | CCN(c1cccc2c1C/C=C/CCc1cc(C)[nH]c(=O)c1CNC2=O)C1CCC2(CC1)CNC2 [Example 66, (E)-10-(ethyl(2-azaspiro[3.5]nonan-7-yl)amino)-3-methyl-5,6,15,16-tetrahydrobenzo[c]pyrido[4,3-j][1]azacyclododecine-1,14(2H,9H)-dione] | 251
9 | CCN(c1cccc2c1C/C=C/CCc1cc(C)[nH]c(=O)c1CNC2=O)[C@H]1CC[C@H](N(C)CC(F)(F)F)CC1 [Example 59, (E)-10-(ethyl(trans-4-(methyl(2,2,2-trifluoroethyl)amino)cyclohexyl)amino)-3-methyl-5,6,15,16-tetrahydrobenzo[c]pyrido[4,3-j][1]azacyclododecine-1,14(2H,9H)-dione] | 316
10 | CCN(c1cccc2c1C/C=C/CCc1cc(C)[nH]c(=O)c1CNC2=O)[C@H]1CC[C@H](NCC(F)(F)F)CC1 [Example 58, (E)-10-(ethyl(trans-4-((2,2,2-trifluoroethyl)amino)cyclohexyl)amino)-3-methyl-5,6,15,16-tetrahydrobenzo[c]pyrido[4,3-j][1]azacyclododecine-1,14(2H,9H)-dione] | 158
11 | CCN(c1cccc2c1C/C=C/CCCc1cc(C)[nH]c(=O)c1CNC2=O)[C@H]1CC[C@H](N(C)C)CC1 [Example 53, (E)-11-((trans-4-(dimethylamino)cyclohexyl)(ethyl)amino)-3-methyl-5,6,7,10,16,17-hexahydro-1H-benzo[c]pyrido[4,3-k][1]azacyclotridecine-1,15(2H)-dione] | 79
12 | CCN(c1cccc2c1C/C=C/CCc1cc(C)[nH]c(=O)c1CNC2=O)C1CCN(N(C)C)CC1 [Example 65, (E)-10-((1-(dimethylamino)piperidin-4-yl)(ethyl)amino)-3-methyl-5,6,15,16-tetrahydrobenzo[c]pyrido[4,3-j][1]azacyclododecine-1,14(2H,9H)-dione] | 316

More lines, now with the values ahead:

Row | IC50 [nM] | SMILES
13 | 158 | CCN(c1cccc2c1C/C=C/CCc1cc(C)[nH]c(=O)c1CNC2=O)[C@H]1CC[C@@H](NC)CC1 [Example 74, (E)-10-(ethyl(cis-4-(methylamino)cyclohexyl)amino)-3-methyl-5,6,15,16-tetrahydrobenzo[c]pyrido[4,3-j][1]azacyclododecine-1,14(2H,9H)-dione formic acid salt]
14 | 126 | CCN(c1cccc2c1C/C=C/CCc1cc(C)[nH]c(=O)c1CNC2=O)[C@H]1CC[C@H](NC)CC1 [Example 73, (E)-10-(ethyl(trans-4-(methylamino)cyclohexyl)amino)-3-methyl-5,6,15,16-tetrahydrobenzo[c]pyrido[4,3-j][1]azacyclododecine-1,14(2H,9H)-dione formic acid salt]
15 | 251 | CCN(c1cccc2c1C/C=C/CCc1cc(C)[nH]c(=O)c1CNC2=O)[C@H]1CC[C@@H](N2CC(F)C2)CC1 [Example 75, (E)-10-(ethyl(cis-4-(3-fluoroazetidin-1-yl)cyclohexyl)amino)-3-methyl-5,6,15,16-tetrahydrobenzo[c]pyrido[4,3-j][1]azacyclododecine-1,14(2H,9H)-dione]
16 | 200 | CCN(c1cccc2c1C/C=C/CCc1cc(C)[nH]c(=O)c1CNC2=O)[C@H]1CC[C@@H](N2CCOCC2)CC1 [Example 86, (E)-10-(ethyl(cis-4-morpholinocyclohexyl)amino)-3-methyl-5,6,15,16-tetrahydrobenzo[c]pyrido[4,3-j][1]azacyclododecine-1,14(2H,9H)-dione]
17 | 126 | CCN(c1cccc2c1C/C=C/CCc1cc(C)[nH]c(=O)c1CNC2=O)[C@H]1CC[C@H](O)CC1 [Example 79, (E)-10-(ethyl(trans-4-hydroxycyclohexyl)amino)-3-methyl-5,6,15,16-tetrahydrobenzo[c]pyrido[4,3-j][1]azacyclododecine-1,14(2H,9H)-dione]
18 | 200 | CCN(c1cccc2c1C/C=C/CCc1cc(C)[nH]c(=O)c1CNC2=O)[C@H]1CC[C@H](N2CC(F)(F)C2)CC1 [Example 81, (E)-10-((trans-4-(3,3-difluoroazetidin-1-yl)cyclohexyl)(ethyl)amino)-3-methyl-5,6,15,16-tetrahydrobenzo[c]pyrido[4,3-j][1]azacyclododecine-1,14(2H,9H)-dione]
19 | 158 | CCN(c1cccc2c1C/C=C/CCc1cc(C)[nH]c(=O)c1CNC2=O)[C@H]1CC[C@H](NCCC(F)(F)F)CC1 [Example 83, (E)-10-(ethyl(trans-4-((3,3,3-trifluoropropyl)amino)cyclohexyl)amino)-3-methyl-5,6,15,16-tetrahydrobenzo[c]pyrido[4,3-j][1]azacyclododecine-1,14(2H,9H)-dione]
20 | 251 | CCN(c1cccc2c1C/C=C/CCc1cc(C)[nH]c(=O)c1CNC2=O)[C@H]1CC[C@@H](NCCC(F)(F)F)CC1 [Example 82, (E)-10-(ethyl(cis-4-((3,3,3-trifluoropropyl)amino)cyclohexyl)amino)-3-methyl-5,6,15,16-tetrahydrobenzo[c]pyrido[4,3-j][1]azacyclododecine-1,14(2H,9H)-dione]
21 | 126 | CCN(c1cccc2c1C/C=C/CCc1cc(C)[nH]c(=O)c1CNC2=O)[C@H]1CC[C@H](N2CC(F)C2)CC1 [Example 76, (E)-10-(ethyl(trans-4-(3-fluoroazetidin-1-yl)cyclohexyl)amino)-3-methyl-5,6,15,16-tetrahydrobenzo[c]pyrido[4,3-j][1]azacyclododecine-1,14(2H,9H)-dione]
22 | 126 | CCN(c1cccc2c1C/C=C/CCc1cc(C)[nH]c(=O)c1CNC2=O)C1CC2(CC(N)C2)C1 (stereo not shown) [Example 70, (E)-10-((6-aminospiro[3.3]heptan-2-yl)(ethyl)amino)-3-methyl-5,6,15,16-tetrahydrobenzo[c]pyrido[4,3-j][1]azacyclododecine-1,14(2H,9H)-dione]
